Measured values taken from PMC3836994, “Killer Bee Molecules: Antimicrobial Peptides as Effector Molecules to Target Sporogonic Stages of Plasmodium” (PLoS Pathogens, 2013).

How the values were obtained:
Plasmodium spp. = details: An. gambiae infected with a variety of Plasmodium spp., magainin injected into the midgut haemocoel; ref [29]; cited from earlier work
From the text: (§1) Supplement ppat.1003790.s001.doc, table 1: Table S1. Peptide sequence, activity and source. | column: Sequence and description

[1] = test system: wide spectrum of microorganisms; details: x as strong as magainin 2; ref [83]; cited from earlier work
From the text: as §1

P. falciparum = assay: Field P. falciparum from gametocyte carriers membrane-fed to An. gambiae (Mali); type: in vivo, Plasmodium falciparum; details: 50 µM
From the text: Nyaganabougou, a village approximately 60 km south-west of the Malian capital, Bamako, was used as a site for the source of donors of malaria-infected blood. Due to its proximity to the river Niger, which provides perennial mosquito breeding sites, Nyaganabougou has high numbers of infected individuals and an extended transmission season. Mosquitoes used to establish the An. gambiae Mali colony used for this study were originally collected in the village of Kenieroba (a distance of 15 km from Nyaganabougou). Potential male and female gametocyte carriers between the ages of 6–10 were screened by thick smear and parasite species and density determined by local staff, led by Saibou Doumbia.
Gametocyte carriers were taken to the Malaria Research and Training Centre at the University of Bamako for blood donation. Approximately 4 ml of blood was extracted from carriers and immediately divided into 3 Hemotek membrane feeders for testing 2 separate AMPs and one control for each carrier. Peptides were added to 950 µl of gametocytaemic blood for a final concentration of 50 µM. All parasite-positive individuals were subsequently treated appropriately for parasites and associated symptoms, as determined by, and carried out by, local health workers in Nyaganabougou.
Approximately 120 adult female An. gambiae (Mali, 4–7 days old) were starved overnight, and allowed to feed on the gametocytaemic blood/AMP mix for 30 min. Engorged females were maintained on 10% glucose with 0.05% PABA for 8 days before dissection. No oviposition sites were provided so that fecundity could be measured by determining retained eggs. Mosquito wing length, numbers of retained eggs and oocysts were recorded, and triplicate peptide experiments were carried out on different mosquito cohorts, using blood from different donors. Where possible, a minimum of 50 mosquitoes were dissected for each condition.

Sequence: GIGKFLHSAKKFGKAFVGEIMNS [Magainin II, AMP from Xenopus laevis skin, forms pores]
- Oocyst development abolished (Plasmodium spp.): GIGKFLHSAKKFGKAFVGEIMNS. AMP from Xenopus laevis skin. Forms pores and induces cell permeabilisation. An. gambiae infected with a variety of Plasmodium spp. injected with magainin into the midgut haemocoel abolished oocyst development >80%.

Sequence: KGRGKQGGKVRAKAKTRSS [Parasin, Parasin I, Isolated from the skin mucus of wounded catfish]
- Activity relative to magainin 2 [1]: KGRGKQGGKVRAKAKTRSS. Isolated from the skin mucus of wounded catfish. Strong activity (12-100x as strong as magainin 2) against a wide spectrum of microorganisms, without any haemolytic activity.
- Oocyst prevalence (oocyst positive mosquitoes), peptide (P. falciparum; Replicate 1, blood of gametocyte carriers, progeny of field An. gambiae): 3% (64)
- Oocyst intensity (mean number of oocysts per gut, range in parentheses), peptide (P. falciparum; Replicate 1, field parasites and mosquitoes): <1 (0–2)
- Reduction of prevalence (P. falciparum; single preliminary experiment): 80%
